In ChEMBL document CHEMBL5360530, “Structure activity relationship (SAR) and anticancer activity of pyrrolidine derivatives: Recent developments and future prospects (A review)” (Eur J Med Chem, 2023):
Values after ≈ are worked out from the molar mass of the structure shown. Square brackets hold non-standard residues; d marks the D form. Peptide text beside a SMILES is read from it. * marks the point of attachment. ξ: configuration not given here. X2 = CC[C@H](C)[C@@H](CN[C@@H](Cc1ccccc1)C(=O)OC)N*; X1 = O=C(OC(C(F)(F)F)C(F)(F)F)*; ξP = O=C(O)C1CCCN1

Legend:
HepG2 = assay: Anticancer activity against human HepG2 cells assessed as cell growth inhibition measured after 24 hrs by SRB assay; assay type: functional, cell-based; settings: HepG2, 24 h
HCT-116 [1] = assay: Anticancer activity against human HCT-116 cells assessed as cell growth inhibition measured after 24 hrs by SRB assay; assay type: functional, cell-based; settings: HCT-116, 24 h
MCF7 [2] = assay: Anticancer activity against human MCF7 cells assessed as cell growth inhibition measured after 24 hrs by SRB assay; assay type: functional, cell-based; settings: MCF7, 24 h
P388 = assay: Anticancer activity against P388 cells assessed as cell growth inhibition; assay type: functional, cell-based; settings: Mus musculus
A549 [3] = assay: Anticancer activity against human A549 cells assessed as cell growth inhibition measured after 24 hrs by MTT assay; assay type: functional, cell-based; settings: A549, 24 h
HT-29 [4] = assay: Anticancer activity against human HT-29 cells assessed as cell growth inhibition measured after 48 hrs by MTT assay; assay type: functional, cell-based; settings: HT-29, 48 h
HCT-116 [5] = assay: Anticancer activity against human HCT-116 cells assessed as cell growth inhibition measured after 48 hrs by MTT assay; assay type: functional, cell-based; settings: HCT-116, 48 h
[6] = Cytotoxicity against human Adipose tissue derived mesenchymal stem cell assessed as cell growth inhibition measured after 48 hrs by MTT assay; assay type: toxicity, cell-based; settings: adipose tissue derived mesenchymal stem cells
MCF7 [7] = assay: Anticancer activity against human MCF7 cells assessed as cell growth inhibition by MTT assay; assay type: functional, cell-based
A549 [8] = assay: Anticancer activity against human A549 cells assessed as cell growth inhibition by MTT assay; assay type: functional, cell-based
HeLa = assay: Anticancer activity against human HeLa cells assessed as cell growth inhibition measured after 48 hrs by MTT assay; assay type: functional, cell-based
Jurkat = assay: Anticancer activity against human Jurkat cells assessed as cell growth inhibition measured after 48 hrs by MTT assay; assay type: functional, cell-based
COS-7 = assay: Anticancer activity against COS-7 cells assessed as cell growth inhibition at 50 uM measured after 48 hrs by MTT assay relative to control; assay type: functional; settings: Chlorocebus aethiops
MCF7 [9] = assay: Anticancer activity against human MCF7 cells assessed as cell growth inhibition at 50 uM measured after 48 hrs by MTT assay relative to control; assay type: functional
A549 [10] = assay: Anticancer activity against human A549 cells assessed as cell growth inhibition measured after 72 hrs by CCK-8 assay; assay type: functional, cell-based; settings: A549, 72 h
MDA-MB-231 = assay: Anticancer activity against human MDA-MB-231 cells assessed as cell growth inhibition measured after 72 hrs by CCK-8 assay; assay type: functional, cell-based; settings: MDA-MB-231, 72 h
HCT-116 [11] = assay: Anticancer activity against human HCT-116 cells assessed as cell growth inhibition measured after 72 hrs by CCK-8 assay; assay type: functional, cell-based; settings: HCT-116, 72 h
MCF7 [12] = assay: Anticancer activity against human MCF7 cells assessed as cell growth inhibition measured after 48 hrs by WST-1 assay; assay type: functional, cell-based; settings: MCF7, 48 h
HT-29 [13] = assay: Anticancer activity against human HT-29 cells assessed as cell growth inhibition measured after 24 hrs by MTT assay; assay type: functional, cell-based; settings: HT-29, 24 h
MCF7 [14] = assay: Anticancer activity against human MCF7 cells assessed as cell growth inhibition measured after 48 hrs by MTT assay; assay type: functional, cell-based; settings: MCF7, 48 h
SH-SY5Y = assay: Anticancer activity against human SH-SY5Y cells assessed as cell death upto 1000 ug/ml measured upto 72 hrs by MTT assay relative to control; assay type: functional; settings: dose <= 1000 µg/ml, up to 1000 µg/mL
HT-29 [15] = assay: Anticancer activity against human HT-29 cells assessed as cell death upto 1000 ug/ml measured upto 72 hrs by MTT assay relative to control; assay type: functional; settings: dose <= 1000 µg/ml, up to 1000 µg/mL
A549 [16] = assay: Anticancer activity against human A549 cells assessed as cell viability measured after 24 hrs by MTT assay; assay type: functional, cell-based; settings: A549, 24 h
A549 [17] = assay: Anticancer activity against human A549 cells assessed as cell viability at 100 ug/ml measured after 24 hrs by MTT assay relative to control; assay type: functional; settings: read-out: Activity
A549 [18] = assay: Anticancer activity against human A549 cells assessed as cell viability at 50 ug/ml measured after 24 hrs by MTT assay relative to control; assay type: functional; settings: read-out: Activity
K562 = assay: Anticancer activity against human K562 cells assessed as cell growth inhibition measured after 48 hrs by MTT assay; assay type: functional, cell-based; settings: K562, 48 h
HT-29 [19] = assay: Anticancer activity against human HT-29 cells xenografted with BALB/c mouse assessed as tumor growth inhibition at 50 mg/kg, iv measured twice daily for 20 days relative to control; assay type: functional; settings: HT-29, 480 h, time 20 day, read-out: TGI
HT-29 [20] = assay: Anticancer activity against human HT-29 cells xenografted with BALB/c mouse assessed as tumor growth inhibition at 50 mg/kg, po measured twice daily for 20 days relative to control; assay type: functional; settings: HT-29, 480 h, time 20 day, read-out: TGI
M-HeLa [21] = assay: Anticancer activity against human HelaM cells assessed as cell growth inhibition measured after 24 hrs by DAPI and propidium iodide staining based assay; assay type: functional
[22] = Cytotoxicity against human Chang liver cells assessed as cell growth inhibition measured after 24 hrs by DAPI and propidium iodide staining based assay; assay type: toxicity
M-HeLa [23] = assay: Induction of apoptosis in human HelaM cells upto 100 uM measured after 24 hrs relative to control; assay type: functional; settings: up to 100 µM

## COc1cccc2c1C(=O)c1c(O)c3c(c(O)c1C2=O)C[C@@](O)(C(=O)CO)C[C@@H]3O[C@H]1C[C@H](N)[C@H](O)[C@H](C)O1 [DOXORUBICIN]
HepG2
  IC50: 5.59 µM
HCT-116 [1]
  IC50: 7.03 µM
MCF7 [2]
  IC50: 4.89 µM

## O=C(/C=C/c1ccc(O)cc1)N1CCCC1
P388
  IC50: 11.3 µg/mL (≈ 52.2 µM)

## COc1ccc([C@@H]2[C@H]([N+](=O)[O-])[C@H](Cc3ccc(O)cc3)NC23C(=O)c2cccc4cccc3c24)cc1 (stereo not given in full)
A549 [3]
  IC50: 96.5 µM

## O=C1CCC(=O)N1c1ccc(O)cc1
HT-29 [4]
  IC50: 1.03 µM
HCT-116 [5]
  IC50: 1.74 µM
[6]
  IC50 at 48 h: 1.32 µM

## NC(=O)[C@@H]1CCCN1C(=O)Cc1noc2ccccc12
MCF7 [7]
  IC50: 4.39 µM
A549 [8]
  IC50: 4.72 µM

## CC[C@H](C)[C@@H](CN[C@@H](Cc1ccccc1)C(=O)OC)NC(=O)[C@@H]1CCCN1C(=O)[C@H](CC(C)C)NC(=O)[C@@H]1CCCN1C(=O)[C@H](CC(C)C)NC(=O)OC(C(F)(F)F)C(F)(F)F (X1-LPLP-X2)
HeLa
  IC50: 4.3 µM

## N#C[C@@H]1CCCN1C(=O)Cc1noc2ccccc12
MCF7 [7]
  IC50: 2.36 µM
A549 [8]
  IC50: 90.3 µM

## O=C1C2=CC=CC3C=CC=C(C23)C12N[C@@H](Cc1ccc(O)cc1)[C@@H]([N+](=O)[O-])[C@H]2c1ccc(Br)cc1 (stereo not given in full)
A549 [3]
  IC50: 65.7 µM
Jurkat
  IC50: 33.1 µM

## O=C1Nc2ccccc2C12CCNC2c1ccccc1 (stereo not given)
COS-7
  inhibition at 50 µM: 0.51%
MCF7 [9]
  inhibition at 50 µM: 25.2%

## CCCCNCC(O)Cn1c2ccc(Cl)cc2c2cc(Cl)ccc21 (stereo not given)
A549 [10]
  IC50: 6 µM
MDA-MB-231
  IC50: 7.5 µM
HCT-116 [11]
  IC50: 6.5 µM

## O=C1C2=CC=CC3C=CC=C(C23)C12N[C@@H](Cc1ccc(O)cc1)[C@@H]([N+](=O)[O-])[C@H]2c1ccc(Cl)cc1 (stereo not given in full)
A549 [3]
  IC50: 40.2 µM
Jurkat
  IC50: 33.6 µM

## O=C(/C=C/c1ccc(O)c(O)c1)N1CCCC1
P388
  IC50: 53.5 µg/mL (≈ 229 µM)

## CCOC(=O)[C@H]1CCCN1C(=O)Cc1noc2ccccc12
A549 [8]
  IC50: 361 µM

## O=c1[nH]cc(F)c(=O)[nH]1 [FLUOROURACIL]
MCF7 [7]
  IC50: 45 µM
MCF7 [12]
  IC50: 78.3 µM
HT-29 [13]
  IC50: 80.6 µM
MCF7 [14]
  IC50: 45 µM

## CC[C@H](C)[C@H](NC(=O)OC(C(F)(F)F)C(F)(F)F)C(=O)N[C@@H](CC(C)C)C(=O)N1CCCC1C(=O)N[C@@H](CC(C)C)C(=O)N[C@H](C(=O)OC)C(C)C (stereo not given in full) (X1-IL[ξP]LV-OMe)
HeLa
  IC50: 2.73 µM

## OC(CN1CCCCC1)Cn1c2ccc(Cl)cc2c2cc(Cl)ccc21 (stereo not given)
A549 [10]
  IC50: 6 µM
MDA-MB-231
  IC50: 6 µM
HCT-116 [11]
  IC50: 6 µM

## CCn1c2ccccc2c2cc(NC(=O)CCN3CCCC3)ccc21
SH-SY5Y
  Activity: 61%
HT-29 [15]
  Activity: 66%

## O=C1CCC(=O)N1CN(Cc1ccccc1)Cc1ccccc1
A549 [16]
  IC50: 176 µg/mL (≈ 572 µM)
A549 [17]
  viability at 100 µg/mL: 72%
A549 [18]
  viability at 50 µg/mL: 78.8%

## Cc1ccc(C2CC(c3ccc(F)cc3)=NN2C(=O)CN2C(=O)CCC2=O)cc1 (stereo not given)
K562
  IC50: 47.2 µM
HT-29 [19]
  inhibition in vivo at 50 mg/kg: 66%
HT-29 [20]
  inhibition in vivo at 50 mg/kg: 60%
HT-29 [4]
  IC50: 0.92 µM
MCF7 [14]
  IC50: 0.07 µM

## Oc1cc2c(cc1C1CCCCC1)OCO2
M-HeLa [21]
  IC50: 14.7 µM
[22]
  IC50 at 24 h: > 100 µM
M-HeLa [23]
  Activity: 25%
